# According to ChEMBL document CHEMBL1130942, “A combinatorial approach to chemical modification of subtilisin Bacillus lentus” (Bioorg Med Chem Lett, 1998):
# Key:
# Format in all cases: ADME
# [1] = Compound was tested for amidase rate in the presence of N62C fully characterised enzyme
# [2] = Compound was tested for amidase rate in the presence of N62C screen enzyme
# [3] = Compound was tested for amidase rate in the presence of S166C fully characterised enzyme
# [4] = Compound was tested for amidase rate in the presence of S166C screen enzyme
# [5] = Compound was tested for esterase rate in the presence of N62C fully characterised enzyme
# [6] = Compound was tested for esterase rate in the presence of N62C screen enzyme
# [7] = Compound was tested for esterase rate in the presence of S166C screen enzyme
# [8] = Compound was tested for esterase rate in the presence of S166C fully characterised enzyme
k cat/Km [1] [mM⁻¹ s⁻¹],k cat/Km [2] [mM⁻¹ s⁻¹],k cat/Km [3] [mM⁻¹ s⁻¹],k cat/Km [4] [mM⁻¹ s⁻¹],k cat/Km [5] [mM⁻¹ s⁻¹],k cat/Km [6] [mM⁻¹ s⁻¹],k cat/Km [7] [mM⁻¹ s⁻¹],k cat/Km [8] [mM⁻¹ s⁻¹],SMILES
93,86,68,17,7870,5680,1746,5798,COc1ccc(CSS(C)(=O)=O)cc1
442,74,72,16,50700,7680,2370,11460,CS(=O)(=O)SCc1ccc(C(=O)O)cc1
379,207,20,10,6330,6510,1160,4920,CS(=O)(=O)SCc1ccccc1

SMILES,k cat/Km [1] [mM⁻¹ s⁻¹],k cat/Km [2] [mM⁻¹ s⁻¹],k cat/Km [3] [mM⁻¹ s⁻¹],k cat/Km [4] [mM⁻¹ s⁻¹],k cat/Km [5] [mM⁻¹ s⁻¹],k cat/Km [6] [mM⁻¹ s⁻¹],k cat/Km [7] [mM⁻¹ s⁻¹],k cat/Km [8] [mM⁻¹ s⁻¹]
CS(=O)(=O)SCc1c(F)c(F)c(F)c(F)c1F [METHANETHIOSULFONIC ACID PENTAFLUOROPHENYLMETHYL ESTER],198,111,67,14,14260,7520,784,5198
